# Key:
# Format in all cases: cell-based, Clostridium autoethanogenum
# [1] = test system: C. autoethanogenum LZ1561; assay: Growth of C. autoethanogenum LZ1561 challenged with 2-HIBA in serum bottles; parameters: growth rate μ, Set 1 / growth rate μ, Set 2: unit not given here
# Method: Clostridium strains were grown at 37° C. in PETC media at pH 5.6 using standard anaerobic techniques (Hungate, Meth Microbiol, 3B: 117-132, 1969; Wolfe, Adv Microb Physiol, 6: 107-146, 1971). Fructose (heterotrophic growth) or 30 psi CO-containing steel mill gas (collected from New Zealand Steel site in Glenbrook, NZ; composition: 44% CO, 32% N2, 22% CO2, 2% H2) in the headspace (autotrophic growth) was used as substrate. For solid media, 1.2% bacto agar (BD, Frankton Lakes, N.J. 07417, USA) was added.
# Two sets of serum bottle experiments were performed with media containing 0, 0.5, 1, 1.5, 2, 3, or 4 g/L of 2-HIBA. An average of optical density (OD) data from both sets of growth experiments was plotted. Data points outside the visually observed exponential growth phase were removed and the growth rate (g) for each concentration of 2-HIBA was calculated by fitting an exponential trend line (FIG. 1).
# FIGS. 1A-1D show the growth rates of C. autoethanogenum challenged with different concentrations of 2-HIBA. FIG. 1A and FIG. 1B show the respective difference in growth curves for the two sets of growth experiments (n=3). FIG. 1C and FIG. 1D show exponentially fitted lines corresponding to FIG. 1A and FIG. 1B, respectively. […] To extract the growth rate from the trend line equations, the following equation was used OD=OD0Xe^μt, where OD=y, t=x in the trend line equations, providing the calculated growth rates listed below.
# The growth rates (μ) were plotted in Prism6 (GraphPad, USA) as μ vs log10 [2-HIBA] to determine the concentration of 2-HIBA at which the growth rate of C. autoethanogenum is 50% (FIG. 2).
# [2] = test system: C. autoethanogenum LZ1561; assay: Selection of a 2-HIBA tolerant strain in continuous fermentation
# Method: Microorganisms unable to cope with the increasing 2-HIBA concentration were diluted out from the fermentation system, while microorganisms with improved tolerance were retained. Glycerol stocks were collected as the culture resistance improved. CSTRs were inoculated with C. autoethanogenum LZ1561. The reactors were started in batch mode and turned to continuous mode at a dilution rate of 1.5 after approximately 40 hours. Once operationally stable, 2-HIBA (1.1 g/L) was added to the feeding media which was run into the reactor at a dilution rate of 1.5. […] During selection in continuous fermentation, the 2-HIBA concentration tolerated by the C. autoethanogenum LZ1561 culture was reproducibly raised from 1.1 g/L to 6.7 g/L ([…]) by slowly increasing the 2-HIBA concentration over a period of 85 days.
# [3] = test system: C. autoethanogenum; assay: Toxicity of 2-HIBA under continuous fermentation (CSTR), gas uptake and metabolite monitoring; details: early effect on gas uptake and metabolite production
# Excerpt: CSTRs were inoculated with C. autoethanogenum and brought to a stable optical density (OD600 nm) and dilution rate (D˜1.5). For all fermentations in CSTRs, chemically defined media was used containing no yeast extract. Parameters were monitored on an hourly basis, including metabolites (measured by HPLC) and gas composition in/out (measured by GC). Early effects of 2-HIBA on culture metabolism included a measurable reduction in CO and/or H2 utilization rates, followed by a decline in metabolite production rate. Two CSTRs were run in parallel and received the same inoculum and media in flow rate and composition. The reactors were turned continuous at day 0.9 with media containing 1.5 g/L 2-HIBA at a dilution rate of 1.5. […] The process was then repeated on the same culture in one reactor while the other served as a control. Following introduction of 2-HIBA, the metabolic profile of C. autoethanogenum shifted to favor 2,3-butanediol production, capping ethanol production. Biomass production was reduced under increasing inflow from 2-HIBA and overall metabolic levels drop caused by reduced CO and H2 uptake. By removing 2-HIBA from the inflow media, gas uptake and metabolic production is stabilized. This indicates a reversible reaction to 2-HIBA. The average effect level of 2-HIBA in a continuous CSTR system was calculated as 1.15 g/L.
structure (smiles),measurement,setting,value
"CC(C)(O)C(=O)O [2-HIBA, 2-hydroxyisobutyric acid]",IC50,"[1]; Clostridium autoethanogenum, LZ1561, μ vs log10 [2-HIBA], read-out: IC50 (concentration of 2-HIBA at which the growth rate is 50%)",2200 µg/mL
same,"growth rate μ, Set 1",[1]; [2-HIBA] 0.5 g/L,0.096
same,"growth rate μ, Set 2",[1]; [2-HIBA] 0.5 g/L,0.104
same,"growth rate μ, Set 1",[1]; [2-HIBA] 1 g/L,0.092
same,"growth rate μ, Set 2",[1]; [2-HIBA] 1 g/L,0.105
same,"growth rate μ, Set 1",[1]; [2-HIBA] 1.5 g/L,0.078
same,"growth rate μ, Set 2",[1]; [2-HIBA] 1.5 g/L,0.089
same,"growth rate μ, Set 1",[1]; [2-HIBA] 2 g/L,0.082
same,"growth rate μ, Set 2",[1]; [2-HIBA] 2 g/L,0.090
same,"growth rate μ, Set 1",[1]; [2-HIBA] 3 g/L,0.001
same,"growth rate μ, Set 2",[1]; [2-HIBA] 3 g/L,0.004
same,"growth rate μ, Set 1",[1]; [2-HIBA] 4 g/L,0.004
same,"growth rate μ, Set 2",[1]; [2-HIBA] 4 g/L,−0.005
same,effect on growth,[1]; concentration up to 1 g/L of 2-HIBA,little or no effect
same,effect on growth,[1]; over 2 g/L of 2-HIBA,acute
same,effect on growth,[1]; up to a concentration of 2 g/L of 2-HIBA,relatively small effect
same,increase in tolerance,[2]; 1.1 g/L to 6.7 g/L during selection in continuous fermentation,600%
same,2-HIBA concentration tolerated by the culture,[2]; C. autoethanogenum LZ1561 culture at start of selection,1.1 g/L
same,2-HIBA concentration tolerated by the culture,[2]; after slowly increasing the 2-HIBA concentration over a period of 85 days,6.7 g/L
same,average effect level of 2-HIBA in a continuous CSTR system,[3],1.15 g/L
